From ChEMBL document CHEMBL3885881, “DrugMatrix”

Species: Rattus norvegicus
Assay type: toxicity, organism-based, Sprague-Dawley
Details: in vivo, iv, 0 mg/kg, 24 h, vehicle control, dose level Control, time 1 day, vehicle 100 % SALINE
Description: DrugMatrix - Regimen: Single

Structure (SMILES): CC(=O)[C@]1(O)Cc2c(O)c3c(c(O)c2[C@@H](O[C@H]2C[C@H](N)[C@H](O)[C@H](C)O2)C1)C(=O)c1ccccc1C3=O [IDARUBICIN]
- ABSOLUTE BASOPHIL (tissue Blood): 280 cells/µL
- ABSOLUTE EOSINOPHIL (tissue Blood): 75 cells/µL
- ABSOLUTE LYMPHOCYTE (tissue Blood): 9060 cells/µL
- ABSOLUTE MONOCYTE (tissue Blood): 260 cells/µL
- BASOPHIL (tissue Blood): 2.17%
- EOSINOPHIL (tissue Blood): 0.62%
- ERYTHROCYTE COUNT (tissue Blood): 6.64 x10E6/uL
- HEMATOCRIT (tissue Blood): 42.6%
- HEMOGLOBIN (tissue Blood): 13.5 G/DL
- LEUKOCYTE COUNT (tissue Blood): 11.87 x10E3/uL
- LYMPHOCYTE (tissue Blood): 76.3%
- MEAN CORPUSCULAR HEMOGLOBIN (tissue Blood): 20.37 pg
- MEAN CORPUSCULAR HEMOGLOBIN CONCENTRATION (tissue Blood): 31.75 G/DL
- MEAN CORPUSCULAR VOLUME (tissue Blood): 64.17 fL
- MONOCYTE (tissue Blood): 2.1%
- NEUTROPHIL (tissue Blood): 16.75%
- PLATELET COUNT (tissue Blood): 1144.5 x10E3/uL
- ALANINE AMINOTRANSFERASE (tissue Plasma): 42.75 u/L
- ALBUMIN (tissue Plasma): 3.6 G/DL
- ALKALINE PHOSPHATASE (tissue Plasma): 314.75 u/L
- ASPARTATE AMINOTRANSFERASE (tissue Plasma): 66.5 u/L
- BLOOD UREA NITROGEN (tissue Plasma): 14 mg/dL
- CARBON DIOXIDE (tissue Plasma): 37.5 mmol/L
- CHLORIDE (tissue Plasma): 108 MEQ/L
- CHOLESTEROL (tissue Plasma): 74.25 mg/dL
- CREATINE PHOSPHOKINASE (tissue Plasma): 271 u/L
- CREATININE (tissue Plasma): 0.65 mg/dL
- GLUCOSE (tissue Plasma): 171 mg/dL
- LACTATE DEHYDROGENASE (tissue Plasma): 125.75 u/L
- LIPASE (tissue Plasma): 27.5 u/L
- PHOSPHORUS (tissue Plasma): 11.25 mg/dL
- POTASSIUM (tissue Plasma): 6.72 MEQ/L
- SODIUM (tissue Plasma): 153.5 MEQ/L
- TOTAL BILIRUBIN (tissue Plasma): 0.23 mg/dL
- TOTAL PROTEIN (tissue Plasma): 6.2 G/DL
- URIC ACID (tissue Plasma): 0.85 mg/dL
